Test results from article PMC5218480 (PLoS ONE, 2017).

Test system: MV-4-11 cells
Experiment: Gene expression microarray analysis (Affymetrix PrimeView) and GSEA
Format: cell-based, human
Set-up: RFU PODN (11730768_x_at) / Fold change /veh PODN (11730768_x_at) / RFU LINC00158 (11744669_a_at) / Fold change /veh LINC00158 (11744669_a_at) / RFU DUSP10 (11751237_a_at) / Fold change /veh DUSP10 (11751237_a_at) / RFU ID3 (11757404_x_at) / Fold change /veh ID3 (11757404_x_at) / RFU PLEKHG5 (11737974_s_at) / Fold change /veh PLEKHG5 (11737974_s_at) / RFU LRRC4B (11730491_at) / Fold change /veh LRRC4B (11730491_at) / RFU GIMAP4 (11747438_a_at) / Fold change /veh GIMAP4 (11747438_a_at) / RFU KRT8 (11758183_x_at) / Fold change /veh KRT8 (11758183_x_at) / RFU CNN1 (11734310_a_at) / Fold change /veh CNN1 (11734310_a_at) / RFU VPS37D (11726825_at) / Fold change /veh VPS37D (11726825_at) / RFU C10orf10 (11716522_x_at) / Fold change /veh C10orf10 (11716522_x_at) / RFU KIR2DL2 /// KIR2DL4 /// KIR2DL5A /// KIR2DL5B /// KIR2DS1 /// KIR2DS2 /// KIR2DS3 /// KIR2DS4 /// KIR3DL3 /// KIR3DL3 /// KIR3DS1 (11738374_at) / Fold change /veh KIR2DL2 /// KIR2DL4 /// KIR2DL5A /// KIR2DL5B /// KIR2DS1 /// KIR2DS2 /// KIR2DS3 /// KIR2DS4 /// KIR3DL3 /// KIR3DL3 /// KIR3DS1 (11738374_at) / RFU C1QL1 (11718748_at) / Fold change /veh C1QL1 (11718748_at) / RFU TMPRSS4 (11747572_a_at) / Fold change /veh TMPRSS4 (11747572_a_at) / RFU HAMP (11756126_x_at) / Fold change /veh HAMP (11756126_x_at) / RFU RNFT2 (11725882_a_at) / Fold change /veh RNFT2 (11725882_a_at) / RFU NR4A2 (11747474_a_at) / Fold change /veh NR4A2 (11747474_a_at) / RFU ABCC12 (11746883_a_at) / Fold change /veh ABCC12 (11746883_a_at) / RFU TMEM136 (11760407_x_at) / Fold change /veh TMEM136 (11760407_x_at) / RFU CLDN22 /// WWC2 (11732394_at) / Fold change /veh CLDN22 /// WWC2 (11732394_at) / RFU HLA-DPB1 (11760878_x_at) / Fold change /veh HLA-DPB1 (11760878_x_at) / RFU SPINT1 (11716480_a_at) / Fold change /veh SPINT1 (11716480_a_at) / RFU GAP43 (11754022_s_at) / Fold change /veh GAP43 (11754022_s_at) / RFU A4GNT (11735810_at) / Fold change /veh A4GNT (11735810_at) / RFU PRB3 (11715151_x_at) / Fold change /veh PRB3 (11715151_x_at) / RFU TUBB4B (11761932_at) / Fold change /veh TUBB4B (11761932_at) / RFU CAPN14 (11732068_a_at) / Fold change /veh CAPN14 (11732068_a_at) / RFU TMCC2 (11721928_a_at) / Fold change /veh TMCC2 (11721928_a_at) / RFU IRGQ (11745062_a_at) / Fold change /veh IRGQ (11745062_a_at) / RFU FAM174B (11720279_a_at) / Fold change /veh FAM174B (11720279_a_at) / RFU TMPRSS4 (11748680_a_at) / Fold change /veh TMPRSS4 (11748680_a_at) / RFU FAM212B (11763350_a_at) / Fold change /veh FAM212B (11763350_a_at) / RFU PLEKHG5 (11743358_a_at) / Fold change /veh PLEKHG5 (11743358_a_at) / RFU ZSCAN30 (11745921_a_at) / Fold change /veh ZSCAN30 (11745921_a_at) / RFU CMKLR1 (11741424_a_at) / Fold change /veh CMKLR1 (11741424_a_at) / RFU LOC101060620 /// MAPK8IP1 (11723275_at) / Fold change /veh LOC101060620 /// MAPK8IP1 (11723275_at) / RFU SPTSSB (11747773_x_at) / Fold change /veh SPTSSB (11747773_x_at) / RFU PRSS12 (11739890_at) / Fold change /veh PRSS12 (11739890_at) / RFU BIN1 (11741810_x_at) / Fold change /veh BIN1 (11741810_x_at) / RFU WNT11 (11732464_a_at) / Fold change /veh WNT11 (11732464_a_at) / RFU C10orf10 (11716521_a_at) / Fold change /veh C10orf10 (11716521_a_at) / RFU C5orf56 (11738089_at) / Fold change /veh C5orf56 (11738089_at) / RFU CYB561 (11721691_x_at) / Fold change /veh CYB561 (11721691_x_at) / RFU ANKRD19P (11752326_a_at) / Fold change /veh ANKRD19P (11752326_a_at) / RFU OR2T12 /// OR2T33 /// OR2T8 (11738714_s_at) / Fold change /veh OR2T12 /// OR2T33 /// OR2T8 (11738714_s_at) / RFU VCAN (11748164_a_at) / Fold change /veh VCAN (11748164_a_at) / RFU JSRP1 (11732532_at) / Fold change /veh JSRP1 (11732532_at) / RFU KRTAP10-11 (11738290_x_at) / Fold change /veh KRTAP10-11 (11738290_x_at) / RFU MYO3A (11730013_a_at) / Fold change /veh MYO3A (11730013_a_at) / RFU EBF3 (11725865_a_at) / Fold change /veh EBF3 (11725865_a_at) / RFU CAMK2N1 (11719241_x_at) / Fold change /veh CAMK2N1 (11719241_x_at) / RFU C5orf56 (11738088_a_at) / Fold change /veh C5orf56 (11738088_a_at) / RFU OLFML3 (11715873_a_at) / Fold change /veh OLFML3 (11715873_a_at) / RFU LOC100653217 /// NTM (11731650_a_at) / Fold change /veh LOC100653217 /// NTM (11731650_a_at) / RFU MAPK11 (11762145_a_at) / Fold change /veh MAPK11 (11762145_a_at) / RFU FIZ1 (11724087_x_at) / Fold change /veh FIZ1 (11724087_x_at) / RFU OASL (11726364_x_at) / Fold change /veh OASL (11726364_x_at) / RFU SOX15 (11748057_x_at) / Fold change /veh SOX15 (11748057_x_at) / RFU CD79A (11719716_a_at) / Fold change /veh CD79A (11719716_a_at) / RFU HIST1H1D (11736915_at) / Fold change /veh HIST1H1D (11736915_at) / RFU CASKIN2 (11723855_a_at) / Fold change /veh CASKIN2 (11723855_a_at) / RFU LOC730098 (11760151_x_at) / Fold change /veh LOC730098 (11760151_x_at) / RFU OR4N2 (11742367_at) / Fold change /veh OR4N2 (11742367_at) / RFU PRRT2 (11749266_a_at) / Fold change /veh PRRT2 (11749266_a_at) / RFU SNX32 (11753110_a_at) / Fold change /veh SNX32 (11753110_a_at) / RFU CDHR5 (11726645_a_at) / Fold change /veh CDHR5 (11726645_a_at) / RFU RCAN1 (11760418_a_at) / Fold change /veh RCAN1 (11760418_a_at) / RFU FAM167A (11723789_a_at) / Fold change /veh FAM167A (11723789_a_at) / RFU FAM26E (11764081_at) / Fold change /veh FAM26E (11764081_at) / RFU ISYNA1 (11749810_s_at) / Fold change /veh ISYNA1 (11749810_s_at) / RFU ACY1 (11761880_at) / Fold change /veh ACY1 (11761880_at) / RFU 11764098_at / Fold change /veh 11764098_at / RFU SAMD14 (11745864_x_at) / Fold change /veh SAMD14 (11745864_x_at) / RFU NPB (11741838_a_at) / Fold change /veh NPB (11741838_a_at) / RFU TMPRSS6 (11731388_a_at) / Fold change /veh TMPRSS6 (11731388_a_at) / RFU KRTAP10-2 (11738614_at) / Fold change /veh KRTAP10-2 (11738614_at) / RFU ARHGAP8 /// PRR5-ARHGAP8 (11727945_x_at) / Fold change /veh ARHGAP8 /// PRR5-ARHGAP8 (11727945_x_at) / RFU KRTAP5-7 /// NADSYN1 (11734609_at) / Fold change /veh KRTAP5-7 /// NADSYN1 (11734609_at) / RFU RASL12 (11751679_a_at) / Fold change /veh RASL12 (11751679_a_at) / RFU CDKN2B (11736163_a_at) / Fold change /veh CDKN2B (11736163_a_at) / RFU PRF1 (11729649_at) / Fold change /veh PRF1 (11729649_at) / RFU, ZNF638 /// ZNF638-IT1 / Fold change vs veh, ZNF638 /// ZNF638-IT1 / RFU, PANK3 / Fold change vs veh, PANK3 / RFU, SH3YL1 / Fold change vs veh, SH3YL1 / RFU, ZEB2 / Fold change vs veh, ZEB2 / RFU, NRIP1 / Fold change vs veh, NRIP1 / RFU, PTTG1IP / Fold change vs veh, PTTG1IP / RFU, CAPN2 / Fold change vs veh, CAPN2 / RFU, MED14 / Fold change vs veh, MED14 / RFU, SNORA58 / Fold change vs veh, SNORA58 / RFU, C1orf63 / Fold change vs veh, C1orf63 / RFU, LRRFIP1 / Fold change vs veh, LRRFIP1 / RFU, NDUFAF7 / Fold change vs veh, NDUFAF7 / RFU, SLC12A2 / Fold change vs veh, SLC12A2 / RFU, IBTK / Fold change vs veh, IBTK / RFU, ESF1 / Fold change vs veh, ESF1 / Fold change vs veh, TMEM50B / RFU, TAOK1 / Fold change vs veh, TAOK1 / RFU, ACBD3 / Fold change vs veh, ACBD3 / RFU, TMA16 / Fold change vs veh, TMA16 / RFU, RWDD3 / Fold change vs veh, RWDD3 / RFU, BCAT1 / Fold change vs veh, BCAT1 / RFU, EDEM3 / Fold change vs veh, EDEM3 / RFU, TMEM33 / Fold change vs veh, TMEM33 / RFU, WDR75 / Fold change vs veh, WDR75 / RFU, AHCTF1 / Fold change vs veh, AHCTF1 / RFU, TFRC / Fold change vs veh, TFRC / RFU, ZDHHC17 / Fold change vs veh, ZDHHC17 / RFU, NOM1 / Fold change vs veh, NOM1 / RFU, ARL8B / Fold change vs veh, ARL8B / RFU, ZBTB11 / Fold change vs veh, ZBTB11 / RFU, TAMM41 / Fold change vs veh, TAMM41 / RFU, KIAA1704 /// LOC100996395 / Fold change vs veh, KIAA1704 /// LOC100996395 / RFU, ING1 / Fold change vs veh, ING1 / RFU, TRMT61B / Fold change vs veh, TRMT61B / RFU, FUBP3 / Fold change vs veh, FUBP3 / RFU, TP53 / Fold change vs veh, TP53 / RFU, TNKS2 / Fold change vs veh, TNKS2 / RFU, ZFP14 / Fold change vs veh, ZFP14 / RFU, ACTR2 / Fold change vs veh, ACTR2 / RFU, PPP3R1 / Fold change vs veh, PPP3R1 / RFU, PIK3R1 / Fold change vs veh, PIK3R1 / RFU, HNRNPA1 / Fold change vs veh, HNRNPA1 / RFU, RNF170 / Fold change vs veh, RNF170 / RFU, ZNF28 / Fold change vs veh, ZNF28 / RFU, RNGTT / Fold change vs veh, RNGTT / RFU, OGT / Fold change vs veh, OGT / RFU, BRD1 / Fold change vs veh, BRD1 / RFU, MARS / Fold change vs veh, MARS / RFU, ZNF655 / Fold change vs veh, ZNF655 / RFU, FAHD1 / Fold change vs veh, FAHD1 / RFU, BDP1 / Fold change vs veh, BDP1 / RFU, LRRCC1 / Fold change vs veh, LRRCC1 / RFU, ARID1A / Fold change vs veh, ARID1A / RFU, ZNF146 / Fold change vs veh, ZNF146 / RFU, ZNF330 / Fold change vs veh, ZNF330 / RFU, GPN3 / Fold change vs veh, GPN3 / RFU, C9orf123 / Fold change vs veh, C9orf123 / RFU, N4BP2L2 / Fold change vs veh, N4BP2L2 / RFU, ARFIP1 / Fold change vs veh, ARFIP1 / RFU, FAM179B / Fold change vs veh, FAM179B / RFU, BCL10 / Fold change vs veh, BCL10 / RFU, UHRF1BP1L / Fold change vs veh, UHRF1BP1L / RFU, BET1 / Fold change vs veh, BET1 / RFU, CNOT2 / Fold change vs veh, CNOT2 / RFU, ZNF268 / Fold change vs veh, ZNF268 / Fold change vs veh, ZNF507 / RFU, DGCR2 / Fold change vs veh, DGCR2 / RFU, WDSUB1 / Fold change vs veh, WDSUB1 / Fold change vs veh, HSP90B1 /// MIR3652 / RFU, ADSS / Fold change vs veh, ADSS / RFU, GK / Fold change vs veh, GK / RFU, ZNF148 / Fold change vs veh, ZNF148 / RFU, TAF9 / Fold change vs veh, TAF9 / RFU, SLC1A5 / Fold change vs veh, SLC1A5 / RFU, SLMO2 / Fold change vs veh, SLMO2 / RFU, ABCC4 / Fold change vs veh, ABCC4 / RFU, LOC101060439 /// RAP1B / Fold change vs veh, LOC101060439 /// RAP1B / RFU, RFX7 / Fold change vs veh, RFX7 / RFU, GTPBP10 / Fold change vs veh, GTPBP10 / RFU, CNEP1R1 / Fold change vs veh, CNEP1R1 / RFU, BIVM-ERCC5 /// ERCC5 / Fold change vs veh, BIVM-ERCC5 /// ERCC5 / RFU, ILF3 / Fold change vs veh, ILF3 / RFU 11762660_at / Fold change /veh 11762660_at / RFU VCAN (11757783_s_at) / Fold change /veh VCAN (11757783_s_at) / RFU DDX43 (11728927_at) / Fold change /veh DDX43 (11728927_at) / RFU KRT8 (11758188_x_at) / Fold change /veh KRT8 (11758188_x_at) / RFU NKD1 (11759106_at) / Fold change /veh NKD1 (11759106_at) / RFU SRD5A1 (11742802_a_at) / Fold change /veh SRD5A1 (11742802_a_at) / RFU TPSAB1 /// TPSB2 (11721975_s_at) / Fold change /veh TPSAB1 /// TPSB2 (11721975_s_at) / RFU GSTM3 (11746129_a_at) / Fold change /veh GSTM3 (11746129_a_at) / RFU IL23R (11737362_x_at) / Fold change /veh IL23R (11737362_x_at) / RFU TMEM51 (11727254_a_at) / Fold change /veh TMEM51 (11727254_a_at) / RFU PIWIL2 (11732686_x_at) / Fold change /veh PIWIL2 (11732686_x_at) / RFU ORM1 (11744905_x_at) / Fold change /veh ORM1 (11744905_x_at) / RFU CCDC152 (11743942_at) / Fold change /veh CCDC152 (11743942_at) / RFU ECM1 (11717891_a_at) / Fold change /veh ECM1 (11717891_a_at) / RFU IL23R (11748794_a_at) / Fold change /veh IL23R (11748794_a_at) / RFU TNFAIP8L3 (11732012_x_at) / Fold change /veh TNFAIP8L3 (11732012_x_at) / RFU MBOAT4 (11741988_at) / Fold change /veh MBOAT4 (11741988_at) / RFU 11764193_at / Fold change /veh 11764193_at / RFU TMEM53 (11763286_at) / Fold change /veh TMEM53 (11763286_at) / RFU MAGEB2 (11727129_at) / Fold change /veh MAGEB2 (11727129_at) / RFU TMEM200A (11744735_a_at) / Fold change /veh TMEM200A (11744735_a_at) / RFU CCDC152 (11751479_a_at) / Fold change /veh CCDC152 (11751479_a_at) / RFU FAM211A (11726209_a_at) / Fold change /veh FAM211A (11726209_a_at) / RFU RGS16 (11746705_a_at) / Fold change /veh RGS16 (11746705_a_at) / RFU VCAN (11755009_s_at) / Fold change /veh VCAN (11755009_s_at) / RFU RHOB (11743442_s_at) / Fold change /veh RHOB (11743442_s_at) / RFU RGS16 (11720943_a_at) / Fold change /veh RGS16 (11720943_a_at) / RFU RGS16 (11720944_at) / Fold change /veh RGS16 (11720944_at) / RFU, VPS4B / Fold change vs veh, VPS4B / RFU, CREB1 / Fold change vs veh, CREB1 / RFU, DNAJC13 / Fold change vs veh, DNAJC13 / RFU, GNAQ / Fold change vs veh, GNAQ / RFU, CDK5R1 / Fold change vs veh, CDK5R1 / RFU, ZRANB3 / Fold change vs veh, ZRANB3 / RFU, CUL4A / Fold change vs veh, CUL4A / RFU, CCNY / Fold change vs veh, CCNY / RFU, UFL1 / Fold change vs veh, UFL1 / RFU, COG3 / Fold change vs veh, COG3 / RFU, DIAPH2 / Fold change vs veh, DIAPH2 / RFU, SKA2 / Fold change vs veh, SKA2 / RFU, AFF3 / Fold change vs veh, AFF3 / RFU, LMF1 / Fold change vs veh, LMF1 / RFU, IPO11 / Fold change vs veh, IPO11 / RFU, DFFB / Fold change vs veh, DFFB / RFU, FOXP1 / Fold change vs veh, FOXP1 / RFU, CARD8 / Fold change vs veh, CARD8 / RFU, STRN3 / Fold change vs veh, STRN3 / RFU, ADK / Fold change vs veh, ADK / RFU, RASSF2 / Fold change vs veh, RASSF2 / RFU, WIPF1 / Fold change vs veh, WIPF1 / RFU, LARP1B / Fold change vs veh, LARP1B / RFU, RASA1 / Fold change vs veh, RASA1 / RFU, RB1 / Fold change vs veh, RB1 / RFU, PPFIA1 / Fold change vs veh, PPFIA1 / RFU, MAT2A / Fold change vs veh, MAT2A / RFU, CCT5 / Fold change vs veh, CCT5 / RFU, WDR92 / Fold change vs veh, WDR92 / RFU, CUX1 / Fold change vs veh, CUX1 / RFU, TTC7A / Fold change vs veh, TTC7A / RFU, TMEM135 / Fold change vs veh, TMEM135 / RFU, DEPTOR / Fold change vs veh, DEPTOR / RFU, CPM / Fold change vs veh, CPM / RFU, DNAJB6 / Fold change vs veh, DNAJB6 / RFU, CACNA2D3 / Fold change vs veh, CACNA2D3 / RFU, DTX4 / Fold change vs veh, DTX4 / RFU, TFCP2 / Fold change vs veh, TFCP2 / RFU, GMCL1 /// GMCL1P1 / Fold change vs veh, GMCL1 /// GMCL1P1 / RFU, AEBP2 / Fold change vs veh, AEBP2 / RFU, SNHG1 /// SNORD22 /// SNORD25 /// SNORD26 /// SNORD27 /// SNORD28 /// SNORD29 /// SNORD31 / Fold change vs veh, SNHG1 /// SNORD22 /// SNORD25 /// SNORD26 /// SNORD27 /// SNORD28 /// SNORD29 /// SNORD31 / Fold change (Aza/veh), C12orf56 (ProbeSet 11735607_a_at) / Fold change (ACY-1035/veh), C12orf56 (ProbeSet 11735607_a_at) / Fold change (Aza/veh), FGFR1OP (ProbeSet 11751329_s_at) / Fold change (ACY-1035/veh), FGFR1OP (ProbeSet 11751329_s_at) / Fold change (Aza/veh), VPS36 (ProbeSet 11739960_a_at) / Fold change (ACY-1035/veh), VPS36 (ProbeSet 11739960_a_at) / RFU SYPL1 (11715823_x_at) / Fold change /veh SYPL1 (11715823_x_at) / RFU IGFBP7 (11715501_s_at) / Fold change /veh IGFBP7 (11715501_s_at) / RFU REEP3 (11722064_at) / Fold change /veh REEP3 (11722064_at) / RFU IGLL1 (11728026_x_at) / Fold change /veh IGLL1 (11728026_x_at): dose or concentration left out as unconfirmed
Conditions: MV-4-11 cells, 48 hours

Question: For `Nc1ncn([C@@H]2O[C@H](CO)[C@@H](O)[C@H]2O)c(=O)n1` [azacitidine], which “RFU LOC730098 (11760151_x_at)” value is on record?
Answer: 36.57 RFU
